Values joined by “and” are separate entries in the source; they are usually repeats but may differ in a detail not shown here. Equal entries are not always repeated. Values belong to the molecule of their own block, whether it stands above or below them.
Assay: photoluminescence quantum yield (fraction); solvent given as SMILES

SMILES: CCOC(=O)CN1C(=O)C2=C(c3ccc(C#N)cc3)N(CC(=O)OCC)C(=O)C2=C1c1ccc(C#N)cc1
photoluminescence quantum yield (in CC#N): 0.32
photoluminescence quantum yield (in CS(C)=O): 0.72
photoluminescence quantum yield (in Cc1ccccc1): 0.29

SMILES: C(#Cc1ccc(C#Cc2ccccc2)cc1)c1ccccc1
photoluminescence quantum yield (in ClC(Cl)Cl): 0.5

SMILES: CC(C)(C)c1ccc(-c2c(-c3ccc4c5ccccc5n(-c5ccccc5)c4c3)c(C#N)c(-c3ccc4c5ccccc5n(-c5ccccc5)c4c3)c(-c3ccc(C(C)(C)C)cc3)c2-c2ccc(C(C)(C)C)cc2)cc1
photoluminescence quantum yield (in C1CCOC1): 0.457

SMILES: COc1cccc(OC)c1-c1c2ccc(=[N+]3CCNCC3)cc-2oc2cc(N3CCNCC3)ccc12
photoluminescence quantum yield (in CCO): 0.008
photoluminescence quantum yield (in O): 0.14

SMILES: CC(C)CCC[C@@H](C)[C@H]1CC[C@H]2[C@@H]3CC=C4C[C@@H](OC(=O)Oc5cc(/C=C/c6ccc(N(C)C)cc6)ccc5[N+](=O)[O-])CC[C@]4(C)[C@H]3CC[C@]12C
photoluminescence quantum yield (in C1CCCCC1): 0.29
photoluminescence quantum yield (in C1COCCO1): 0.09
photoluminescence quantum yield (in CCCCCCC): 0.29
photoluminescence quantum yield (in Cc1ccccc1): 0.18

SMILES: O=c1cc(-c2nc3ccccn3c2NC2CCCCC2)occ1OCc1ccccc1
photoluminescence quantum yield (in ClCCl): 0.209

SMILES: Cc1nc2cccc(-c3nc4ccccc4o3)c2c(=O)[nH]1
photoluminescence quantum yield (in CN(C)C=O): 0.392

SMILES: c1ccc(-c2cc(-c3ccccc3)[o+]c(-c3ccccc3)c2)cc1
photoluminescence quantum yield (in CC#N): 0.4
photoluminescence quantum yield (in ClCCCl): 0.28

SMILES: Cc1c(C(=O)c2ccccc2)c2ccc3cccc4c5cccc6ccc1c(c65)c2c34
photoluminescence quantum yield (in ClCCl): 0.02

SMILES: O=[N+]([O-])c1ccc(/C=C/c2cn(S(=O)(=O)c3ccccc3)c3ccccc23)cc1
photoluminescence quantum yield (in CC#N): 0.066
photoluminescence quantum yield (in CCCCCCC): 0.004
photoluminescence quantum yield (in CO): 0.002
photoluminescence quantum yield (in O): 0.003

SMILES: c1ccc(-c2ccccc2)cc1
photoluminescence quantum yield (in C1CCCCC1): 0.25
photoluminescence quantum yield (in C1COCCO1): 0.18

SMILES: CCC(C)(C)c1ccc(-c2ccc(-c3ccc(C(C)(C)CC)cc3)cc2)cc1
photoluminescence quantum yield (in C1COCCO1): 0.85

SMILES: CCCCCCN1C(=O)c2cccc3cc(/N=C\c4ccc(N(c5ccccc5)c5ccccc5)cc4)cc(c23)C1=O
photoluminescence quantum yield (in ClC(Cl)Cl): 0.14

SMILES: CCCCCCCCOc1ccc(C#Cc2c3cc4ccccc4cc3c(C#Cc3ccc(F)cc3)c3cc4ccccc4cc23)cc1
photoluminescence quantum yield (in ClCCl): 0.03

SMILES: F[Si-](F)(c1ccccc1)(c1c2ccccc2cc2ccccc12)c1c2ccccc2cc2ccccc12
photoluminescence quantum yield (in C1CCOC1): 0.46

SMILES: Cc1oc2c(Cl)cc3c(C)cc(=O)oc3c2c1C
photoluminescence quantum yield (in C1CCCCC1): 0.0005
photoluminescence quantum yield (in C1COCCO1): 0.003
photoluminescence quantum yield (in CC#N): 0.007
photoluminescence quantum yield (in CCO): 0.02
photoluminescence quantum yield (in OCC(F)(F)F): 0.04

SMILES: Cn1c2ccc(S(=O)(=O)Cl)cc2c(=O)c2cc(S(=O)(=O)Cl)ccc21
photoluminescence quantum yield (in CS(C)=O): 0.7

SMILES: CCc1c(C)[nH]c(C2=[N+]3C(=C(C)c4c(C)c(CC)c(C)n4[B-]3(F)F)c3ccccc32)c1C
photoluminescence quantum yield (in C1CCOC1): 0.27
photoluminescence quantum yield (in CC#N): 0.21
photoluminescence quantum yield (in CCCCCC): 0.93
photoluminescence quantum yield (in CO): 0.21
photoluminescence quantum yield (in Cc1ccccc1): 0.71
photoluminescence quantum yield (in ClCCl): 0.72

SMILES: CC(=O)OCCN1C(=O)c2cccc3c(Oc4ccc(C#N)cc4)ccc(c23)C1=O
photoluminescence quantum yield (in ClC(Cl)Cl): 0.37

SMILES: C(/C=C/c1ccc(N(c2ccccc2)c2ccccc2)cc1)=C\c1ccncc1
photoluminescence quantum yield (in C1COCCO1): 0.3
photoluminescence quantum yield (in CC#N): 0.16
photoluminescence quantum yield (in CCCCCCC): 0.4
photoluminescence quantum yield (in CO): 0.02

SMILES: CCN(CC)c1ccc2cc(/C=C/c3cccc[n+]3CCCS(=O)(=O)[O-])c(=O)oc2c1
photoluminescence quantum yield (in C1CCOC1): 0.14
photoluminescence quantum yield (in CC#N): 0.11
photoluminescence quantum yield (in CC(C)=O): 0.11
photoluminescence quantum yield (in CS(C)=O): 0.16
photoluminescence quantum yield (in Cc1ccccc1): 0.02
photoluminescence quantum yield (in O): 0.03
photoluminescence quantum yield (in OCC(O)CO): 0.19

SMILES: CC1(C)c2ccccc2N(c2ccc(S(=O)(=O)c3ccc(N4c5ccccc5C(C)(C)c5ccccc54)cc3)cc2)c2ccccc21
photoluminescence quantum yield (in C1COCCO1): 0.8
photoluminescence quantum yield (in CC(C)=O): 0.59
photoluminescence quantum yield (in Cc1ccccc1): 0.8
photoluminescence quantum yield (in ClC(Cl)Cl): 0.8
photoluminescence quantum yield (in c1cc(-n2c3ccccc3c3ccccc32)cc(-n2c3ccccc3c3ccccc32)c1): 0.8

SMILES: CCCCn1c2ccccc2c2ccc(C#Cc3ccc4ccc5cccc6ccc3c4c56)cc21
photoluminescence quantum yield (in ClCCl): 0.62

SMILES: c1ccc(-c2nc(-c3ccccc3)c(-c3ccccc3)o2)cc1
photoluminescence quantum yield (in Cc1ccccc1): 0.36

SMILES: N=c1oc2cccc3c4c(-c5ccccc5)oc5cccc(c(c1-c1ccccc1)c23)c54
photoluminescence quantum yield (in ClC(Cl)Cl): 0.04

SMILES: O[Si](c1c2ccccc2cc2ccccc12)(c1c2ccccc2cc2ccccc12)c1c2ccccc2cc2ccccc12
photoluminescence quantum yield (in ClC(Cl)Cl): 0.015

SMILES: F[B-]1(F)n2c(-c3cccs3)cc(-c3cccs3)c2N=C2C(c3cccs3)=CC(c3cccs3)=[N+]21
photoluminescence quantum yield (in C1CCOC1): 0.12
photoluminescence quantum yield (in CC#N): 0.11
photoluminescence quantum yield (in CS(C)=O): 0.13
photoluminescence quantum yield (in Cc1ccccc1): 0.1
photoluminescence quantum yield (in ClCCl): 0.12 and 0.11

SMILES: C[Si]1(C)O[Si](C)(C)c2cc3nc4ccccc4c(-c4ccccc4)c3cc2[Si](C)(C)O1
photoluminescence quantum yield (in ClCCl): 0.42

Further lines, results first:

photoluminescence quantum yield (in ClCCl): 0.21
SMILES: [O-][n+]1c(/C=C/c2ccccc2)nc(N2CCOCC2)c2c1CCCC2

photoluminescence quantum yield (in ClC(Cl)Cl): 0.52
SMILES: CCCCC1(c2ccc(OC)cc2)Nc2ccccc2N=C1c1ccc(OC)cc1 (stereo not given)

photoluminescence quantum yield (in ClCCl): 0.15
SMILES: CC(C)(C)c1ccc(-c2c3c(c(-c4ccc(C(C)(C)C)cc4)c4cc5ccccc5cc24)Cc2c(c(-c4ccc(C(C)(C)C)cc4)c4cc5ccccc5cc4c2-c2ccc(C(C)(C)C)cc2)C3)cc1

photoluminescence quantum yield (in CC#N): 0.042
SMILES: Oc1ccc2ccccc2c1/C=N/c1cc2ccccc2cc1/N=C/c1c(O)ccc2ccccc12

photoluminescence quantum yield (in ClCCl): 0.93
SMILES: COc1ccc(-c2ccc3c(c2)[Si](C)(C)c2cc(-c4ccc(OC)cc4)ccc2C=C3)cc1

photoluminescence quantum yield (in CC#N): 0.96
SMILES: F[B-]1(F)OC(c2ccc3c(c2)Cc2ccccc2-3)=CC(c2ccccc2)=[O+]1

photoluminescence quantum yield (in CC(C)(C)O): 0.19
photoluminescence quantum yield (in CC(C)CO): 0.29
photoluminescence quantum yield (in CC(C)O): 0.24
photoluminescence quantum yield (in CCCCO): 0.32
photoluminescence quantum yield (in CCCO): 0.27
photoluminescence quantum yield (in CCO): 0.25
photoluminescence quantum yield (in CN(C)C=O): 0.02
photoluminescence quantum yield (in CNC=O): 0.1
photoluminescence quantum yield (in CO): 0.22
photoluminescence quantum yield (in NC=O): 0.43
photoluminescence quantum yield (in O): 0.11
SMILES: COCCOCCOCCOCCOc1ccc(OCCOCCOCCOCCOC)c(C=O)c1

photoluminescence quantum yield (in ClCCl): 0.02
SMILES: F[B-]1(F)OC(/C=C/c2ccccc2)=CC(c2ccccc2)=[O+]1

photoluminescence quantum yield (in ClCCl): 0.35
SMILES: CCCCCCN1C(=O)c2cccc3c(-c4ccc(-c5cc(-c6ccccc6)n(-c6ccccc6)n5)s4)ccc(c23)C1=O

photoluminescence quantum yield (in CC#N): 0.42
photoluminescence quantum yield (in ClCCl): 0.83
SMILES: COc1ccc(-c2cc3c(ccc(=O)n3C)s2)cc1

photoluminescence quantum yield (in c1cc(-c2cccc(-n3c4ccccc4c4ccccc43)c2)cc(-n2c3ccccc3c3ccccc32)c1): 0.96
SMILES: c1ccc(-c2nc(-c3ccccc3)nc(-c3ccc(-c4ccc5c(c4)[Si](c4ccccc4)(c4ccccc4)c4cc(-c6ccc(-c7nc(-c8ccccc8)nc(-c8ccccc8)n7)cc6)ccc4N5c4ccccc4)cc3)n2)cc1

photoluminescence quantum yield (in CS(C)=O): 0.44
SMILES: COc1ccc(C2=[N+]3C(=Nc4c(C)cc(-c5ccc(OC)cc5)n4[B-]3(F)F)C(C)=C2)cc1

photoluminescence quantum yield (in O): 0.24
SMILES: O=C([O-])c1cc2c(ccc3ccccc32)oc1=O

photoluminescence quantum yield (in CC#N): 0.7
SMILES: CC1=CC(C)=[N+]2C1=C(c1ccccc1)c1c(C)cc(/C=C/c3ccccc3)n1[B-]2(F)F
